The record followed here is ChEMBL document CHEMBL3352398, “2-(2-Bromophenyl)-formononetin and 2-heptyl-formononetin are PPARγ partial agonists and reduce lipid accumulation in 3T3-L1 adipocytes” (Bioorg Med Chem, 2014).

Series [1] relates to 3T3-L1. The series is described as follows: Effect on adipogenesis in mouse 3T3L1 cells assessed as increase in Srebf1 gene expression at 5 to 50 uM after 8 days by real time quantitative PCR analysis relative to vehicle-treated control. Format: functional, cell-based.
Series [2] relates to 3T3-L1. Nature of the series: Effect on adipogenesis in mouse 3T3L1 cells assessed as reduction in Pparg gene expression at 5 to 50 uM after 8 days by real time quantitative PCR analysis relative to vehicle-treated control. The format is functional, cell-based.
The nature of series [3]: Cytotoxicity against mouse 3T3L1 cells assessed as LDH release at 50 uM after 48 hrs. Format: cell-based. The settings on record: 3t3-l1, 48 h.
Series [4] deals with 3T3-L1. The series is described as follows: Effect on adipogenesis in mouse 3T3L1 cells assessed as reduction in Srebf1 gene expression at 5 to 50 uM after 4 days by real time quantitative PCR analysis relative to vehicle-treated control. Format: functional, cell-based.
Series [5] has as its system 3T3-L1. The series is described as follows: Effect on adipogenesis in mouse 3T3L1 cells assessed as reduction in Fabp4 gene expression at 5 to 50 uM after 8 days by real time quantitative PCR analysis relative to vehicle-treated control. Format: functional, cell-based.
Series [6] deals with T1, Peroxisome proliferator-activated receptor alpha (Homo sapiens) (UniProt Q07869).
T1 sequence (whole entry): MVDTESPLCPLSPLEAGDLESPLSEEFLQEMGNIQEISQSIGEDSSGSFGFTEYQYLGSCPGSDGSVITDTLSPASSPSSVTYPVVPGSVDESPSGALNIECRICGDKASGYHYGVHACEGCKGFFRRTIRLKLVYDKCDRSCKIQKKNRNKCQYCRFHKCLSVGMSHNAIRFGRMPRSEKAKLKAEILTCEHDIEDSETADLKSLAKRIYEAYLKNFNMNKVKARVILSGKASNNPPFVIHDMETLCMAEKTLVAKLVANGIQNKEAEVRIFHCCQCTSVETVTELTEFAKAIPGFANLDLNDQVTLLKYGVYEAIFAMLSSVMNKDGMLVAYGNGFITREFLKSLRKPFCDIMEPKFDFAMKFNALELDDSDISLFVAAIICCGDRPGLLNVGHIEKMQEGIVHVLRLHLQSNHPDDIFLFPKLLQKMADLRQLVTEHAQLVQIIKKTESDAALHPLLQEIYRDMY
Nature of the series: Agonist activity at PPAR-alpha (unknown origin) by transactivation assay.

Series [7] deals with T2, Peroxisome proliferator-activated receptor delta (Homo sapiens) (UniProt Q03181).
T2 sequence (whole entry): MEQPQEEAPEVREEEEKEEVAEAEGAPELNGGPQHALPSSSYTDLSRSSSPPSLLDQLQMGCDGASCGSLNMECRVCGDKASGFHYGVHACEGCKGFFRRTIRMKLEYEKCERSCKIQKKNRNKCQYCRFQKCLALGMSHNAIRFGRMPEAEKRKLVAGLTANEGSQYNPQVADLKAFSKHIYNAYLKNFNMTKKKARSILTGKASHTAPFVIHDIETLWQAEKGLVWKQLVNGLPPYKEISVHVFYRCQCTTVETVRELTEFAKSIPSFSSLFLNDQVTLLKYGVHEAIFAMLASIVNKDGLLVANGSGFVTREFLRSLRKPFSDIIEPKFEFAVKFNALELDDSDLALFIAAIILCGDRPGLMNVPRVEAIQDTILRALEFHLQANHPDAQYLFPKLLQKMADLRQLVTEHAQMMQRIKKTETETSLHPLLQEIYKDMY
Nature of the series: Agonist activity at PPAR-delta (unknown origin) by transactivation assay.

Series [8] has as its system 3T3-L1. Nature of the series: Induction of lipolysis in mouse 3T3L1 cells assessed as up-regulation of Atgl gene exression by real time-qPCR analysis. The format is functional, cell-based. On the technique in general: Quantitative PCR measures a nucleic acid by following its amplification.

Active and inactive are the calls of the source. No cut-off for these calls is given here.

In the case of `CCCCCCCc1oc2cc(O)ccc2c(=O)c1-c1ccc(OC)cc1`, the Activity entry in the series with 3T3-L1 [1] is “Dose-dependent effect”; in the series on 3T3-L1 [2], “Dose-dependent effect”; in series [3], “Toxic”; in the series on 3T3-L1 [4], “Dose-dependent effect”. Besides, the outcome (in the series on 3T3-L1 [5]; in series [6]; in series [7]) was inactive. Besides, the result with 3T3-L1 [8] was Active.
